# From patent publication US20250282799A1, “SUBSTITUTED PYRIDO[4,3-d]PYRIMIDINES AS KRAS MODULATORS” (Alterome Therapeutics, Inc., priority 2023, published 2025)
# Tested on: KRAS G12V dependent lung adenocarcinoma cell line, NCI-H441
# Experiment: Cellular pERK (Thr202/Tyr204) FRET/HTRF assay
# Assay type: cell-based
# Conditions: Homo sapiens, NCI-H441, cellular pERK (Thr202/Tyr204) HTRF, NCI-H441 cells
# Summary of the method: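 Phospho-ERK1/2 (Thr202/Tyr204) quantified by two-antibody HTRF in lysed NCI-H441 cells. Cells seeded overnight, treated with test compounds for 1 hr at 37 °C against DMSO control, then lysed and detected at room temperature; IC50 obtained by curve fitting.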
row,SMILES,IC50 [nM]
1,"[2H]C([2H])(Oc1nc(N2CCCC[C@H]3[C@H](F)[C@H]32)c2cnc(-c3cc(N)cc4c(F)cc(F)c(C#C)c34)c(F)c2n1)[C@@]12CCCN1C[C@H](F)C2 [Example 96, 5-ethynyl-6,8-difluoro-4-(8-fluoro-4-((1S,7R,8S)-8-fluoro-2-azabicyclo[5.1.0]octan-2-yl)-2-(((2R,7aS)-2-fluorotetrahydro-1H-pyrrolizin-7a(5H)-yl)methoxy-d2)pyrido[4,3-d]pyrimidin-7-yl)naphthalen-2-amine]",< 50
2,"C#Cc1c(F)ccc2cc(O)cc(-c3ncc4c(N5CCOC[C@H]6[C@H](F)[C@H]65)nc(OC[C@H]5CCCN5C)nc4c3F)c12 [Example 284, 5-ethynyl-6-fluoro-4-(8-fluoro-4-((1S,7S,8S)-8-fluoro-5-oxa-2-azabicyclo[5.1.0]octan-2-yl)-2-(((R)-1-methylpyrrolidin-2-yl)methoxy)pyrido[4,3-d]pyrimidin-7-yl)naphthalen-2-ol]",< 50
3,"[2H]C([2H])(F)Oc1c(F)c(F)cc2cc(N)cc(-c3ncc4c(N5CCOC[C@H]6[C@H](F)[C@H]65)nc(OC[C@@]56CCCN5CC(=C)C6)nc4c3F)c12 [Example 144, 6,7-difluoro-4-(8-fluoro-4-((1S,7S,8S)-8-fluoro-5-oxa-2-azabicyclo[5.1.0]octan-2-yl)-2-(((S)-2-methylenetetrahydro-1H-pyrrolizin-7a(5H)-yl)methoxy)pyrido[4,3-d]pyrimidin-7-yl)-5-(fluoromethoxy-d2)naphthalen-2-amine]",< 50
4,"C#Cc1c(F)ccc2cc(N)cc(-c3ncc4c(N5CCOC[C@H]6[C@H](F)[C@H]65)nc(OC[C@]56C[C@@]7(CN5CCC65CC5)CC7(F)F)nc4c3F)c12 (single isomer, unassigned) [Example 218]",< 50
5,"Cc1c(F)c(N)cc(-c2ncc3c(N4CCCC[C@H]5[C@H](F)[C@H]54)nc(OC[C@@]45CCCN4C/C(=C/F)C5)nc3c2F)c1C(F)(F)F [Example 396, 2-fluoro-5-(8-fluoro-4-((1S,7R,8S)-8-fluoro-2-azabicyclo[5.1.0]octan-2-yl)-2-(((S,E)-2-(fluoromethylene)tetrahydro-1H-pyrrolizin-7a(5H)-yl)methoxy)pyrido[4,3-d]pyrimidin-7-yl)-3-methyl-4-(trifluoromethyl)aniline]",500 to 10000
6,"C#Cc1c(F)ccc2cc(N)cc(-c3ncc4c(N5CCOC[C@H]6[C@H](F)[C@H]65)nc(OC[C@]56C/C(=C/F)CN5CCC65CC5)nc4c3F)c12 [Example 363, 5-Ethynyl-6-fluoro-4-(8-fluoro-4-((1S,7S,8S)-8-fluoro-5-oxa-2-azabicyclo[5.1.0]octan-2-yl)-2-(((R,Z)-6′-(fluoromethylene)tetrahydrospiro[cyclopropane-1,1′-pyrrolizin]-7a′(5′H)-yl)methoxy)pyrido[4,3-d]pyrimidin-7-yl)naphthalen-2-amine]",< 50

# Next, values leading:
row,IC50 [nM],SMILES
1,< 50,"[2H]C([2H])(Oc1nc(N2CCOC[C@H]3[C@H](F)[C@H]32)c2cnc(-c3cc(N)cc4ccc(F)c(C#C)c34)c(F)c2n1)[C@@]12CCCN1C[C@]1(C[C@@H]1F)C2 (single isomer, unassigned) [Example 313]"
2,< 50,"[2H]C([2H])(F)Oc1c(F)ccc2cc(N)cc(-c3ncc4c(N5CCOC[C@H]6[C@H](F)[C@H]65)nc(OC([2H])([2H])[C@@]56CCCN5C[C@H](F)C6)nc4c3F)c12 [Example 116, 6-Fluoro-4-(8-fluoro-4-((1S,7S,8S)-8-fluoro-5-oxa-2-azabicyclo[5.1.0]octan-2-yl)-2-(((2R,7aS)-2-fluorotetrahydro-1H-pyrrolizin-7a(5H)-yl)methoxy-d2)pyrido[4,3-d]pyrimidin-7-yl)-5-(fluoromethoxy-d2)naphthalen-2-amine]"
3,500 to 10000,"[2H]C([2H])(Oc1nc(N2CCOC[C@@H]3[C@@H](Cl)[C@@H]32)c2cnc(-c3cc(N)cc4cccc(C#C)c34)c(F)c2n1)[C@@]12CCCN1[C@H](C)[C@H](F)C2 [Example 346, 4-(4-((1R,7R,8R)-8-chloro-5-oxa-2-azabicyclo[5.1.0]octan-2-yl)-8-fluoro-2-(((2R,3R,7aS)-2-fluoro-3-methyltetrahydro-1H-pyrrolizin-7a(5H)-yl)methoxy-d2)pyrido[4,3-d]pyrimidin-7-yl)-5-ethynylnaphthalen-2-amine]"
4,< 50,"[2H]C([2H])(Oc1nc(N2CCOC[C@H]3[C@H](F)[C@H]32)c2cnc(-c3cc(N)cc4cccc(C#C)c34)c(F)c2n1)[C@@]12CCCN1[C@H](C)[C@H](F)C2 [Example 338, 5-ethynyl-4-(8-fluoro-2-(((2R,3R,7aS)-2-fluoro-3-methyltetrahydro-1H-pyrrolizin-7a(5H)-yl)methoxy-d2)-4-((1S,7S,8S)-8-fluoro-5-oxa-2-azabicyclo[5.1.0]octan-2-yl)pyrido[4,3-d]pyrimidin-7-yl)naphthalen-2-amine]"
5,< 50,"C#Cc1c(F)ccc2cc(N)cc(-c3ncc4c(N5CCOC[C@H]6[C@H](F)[C@H]65)nc(OC[C@@]56CCCN5C[C@@H](C)C6)nc4c3F)c12 (single isomer, unassigned) [Example 209]"

# Same assay, conditions: Homo sapiens, NCI-H441, cellular pERK HTRF, NCI-H441 (KRAS G12V) cells
row,IC50 [nM],SMILES
1,500 to 10000,"[2H]C([2H])(Oc1nc(N2CCOC[C@H]3[C@H](F)[C@H]32)c2cnc(-c3cc(N)cc4ccc(F)c(C#C)c34)c(C3CC3)c2n1)[C@@]12CCCN1C[C@H](F)C2 [Example 452, 4-(8-cyclopropyl-4-((1S,7S,8S)-8-fluoro-5-oxa-2-azabicyclo[5.1.0]octan-2-yl)-2-(((2R,7aS)-2-fluorotetrahydro-1H-pyrrolizin-7a(5H)-yl)methoxy-d2)pyrido[4,3-d]pyrimidin-7-yl)-5-ethynyl-6-fluoronaphthalen-2-amine]"
2,< 50,"C#Cc1c(F)ccc2cc(N)cc(-c3ncc4c(N5CCOC[C@H]6[C@H](Cl)[C@H]65)nc(OC[C@]56CC(=C)CN5CCC65CC5)nc4c3C)c12 [Example 459, 4-(4-((1S,7S,8S)-8-Chloro-5-oxa-2-azabicyclo[5.1.0]octan-2-yl)-8-methyl-2-(((R)-6′-methylenetetrahydrospiro[cyclopropane-1,1′-pyrrolizin]-7a′(5′H)-yl)methoxy)pyrido[4,3-d]pyrimidin-7-yl)-5-ethynyl-6-fluoronaphthalen-2-amine]"

# Same assay, conditions: Homo sapiens, NCI-H441, pERK HTRF, NCI-H441 cells (KRAS G12V)
row,IC50 [nM],SMILES
1,< 50,"[2H]C([2H])(Oc1nc(N2CCCC[C@H]3[C@H](F)[C@H]32)c2cnc(-c3cc(N)cc4c(F)c(F)c(F)c(C#C)c34)c(F)c2n1)[C@@]12CCCN1C[C@H](F)C2 [Example 70, 5-Ethynyl-6,7,8-trifluoro-4-(8-fluoro-4-((1S,7R,8S)-8-fluoro-2-azabicyclo[5.1.0]octan-2-yl)-2-(((2R,7aS)-2-fluorotetrahydro-1H-pyrrolizin-7a(5H)-yl)methoxy-d2)pyrido[4,3-d]pyrimidin-7-yl)naphthalen-2-amine]"
2,< 50,"[2H]C([2H])(Oc1nc(N2CCCO[C@H]3[C@H](F)[C@H]32)c2cnc(-c3cccc4cc(F)c(F)c(C#C)c34)c(F)c2n1)[C@@]12CCCN1C[C@H](F)C2 [Example 76, (1R,7S,8R)-6-(7-(8-Ethynyl-6,7-difluoronaphthalen-1-yl)-8-fluoro-2-(((2R,7aS)-2-fluorotetrahydro-1H-pyrrolizin-7a(5H)-yl)methoxy-d2)pyrido[4,3-d]pyrimidin-4-yl)-8-fluoro-2-oxa-6-azabicyclo[5.1.0]octane]"
3,500 to 10000,"[2H]C([2H])(Oc1nc(N2CCCO[C@@H]3C[C@@H]32)c2cnc(-c3ccc(F)c4sc(N)c(C#N)c34)c(F)c2n1)[C@@]12CCCN1C[C@H](F)C2 [Example 40, 4-(4-((1R,7S)-2-Oxa-6-azabicyclo[5.1.0]octan-6-yl)-8-fluoro-2-(((2R,7aS)-2-fluorotetrahydro-1H-pyrrolizin-7a(5H)-yl)methoxy-d2)pyrido[4,3-d]pyrimidin-7-yl)-2-amino-7-fluorobenzo[b]thiophene-3-carbonitrile]"
4,500 to 10000,"[2H]C([2H])(Oc1nc(N2CCCC[C@@H]3C[C@@H]32)c2cnc(-c3cc(N)cc4cc(F)c(F)c(C#C)c34)c(F)c2n1)[C@@]12CCCN1C[C@H](F)C2 [Example 7, 4-(4-((1S,7R)-2-Azabicyclo[5.1.0]octan-2-yl)-8-fluoro-2-(((2R,7aS)-2-fluorotetrahydro-1H-pyrrolizin-7a(5H)-yl)methoxy-d2)pyrido[4,3-d]pyrimidin-7-yl)-5-ethynyl-6,7-difluoronaphthalen-2-amine]"
5,< 50,"[2H]C([2H])([2H])Oc1c(C#N)c(F)cc2cc(N)cc(-c3ncc4c(N5CCCC[C@H]6[C@H](F)[C@H]65)nc(OC([2H])([2H])[C@@]56CCCN5C[C@H](F)C6)nc4c3F)c12 [Example 50, 6-Amino-3-fluoro-8-(8-fluoro-4-((1S,7R,8S)-8-fluoro-2-azabicyclo[5.1.0]octan-2-yl)-2-(((2R,7aS)-2-fluorotetrahydro-1H-pyrrolizin-7a(5H)-yl)methoxy-d2)pyrido[4,3-d]pyrimidin-7-yl)-1-(methoxy-d3)-2-naphthonitrile]"

# Same assay, conditions: cellular pERK (Thr202/Tyr204) HTRF, NCI-H441 cells
row,IC50 [nM],SMILES
1,500 to 10000,"[2H]C([2H])(Oc1nc(N2CCOC[C@H]3[C@H](Cl)[C@H]32)c2cc(C(F)(F)F)c(-c3ccc(F)c4sc(N)c(C#N)c34)c(F)c2n1)[C@@]12CCCN1C[C@H](F)C2 (atropisomer, axis not shown; (aS)) [Example 418, 2-amino-4-((R)-4-((1S,7S,8S)-8-chloro-5-oxa-2-azabicyclo[5.1.0]octan-2-yl)-8-fluoro-2-(((2R,7aS)-2-fluorotetrahydro-1H-pyrrolizin-7a(5H)-yl)methoxy-d2)-6-(trifluoromethyl)quinazolin-7-yl)-7-fluorobenzo[b]thiophene-3-carbonitrile]"
